According to patent US20220221445A1, “USES OF PATIENT-DERIVED INTESTINAL ORGANOIDS FOR CELIAC DISEASE DIAGNOSIS SCREENING AND TREATMENT” (The Board of TrusteesoftheLelandStanfordJuniorUniversity, priority 2019, published 2022):

System: active CeD organoids
Test: IL-15 expression and IL-15 gain-of-function in CeD organoids
Format: cell-based, human
Conditions: gain-of-function treatment
Description: IL-15 loss-of-function is studied in gliadin-treated, active CeD organoids +/− IL-15 neutralization by soluble recombinant IL-15 receptor (soluble hIL15Rα, R&D #7194-IR) or anti-human IL-15 neutralizing antibody (R&D #MAB647). Endpoints include inhibition of the following gliadin-induced responses: (1) HLA-DQ2:gliadin tetramer-positive T cell abundance by FACS, (2) tetramer(+) CD4^+ T cell or tetramer(−) CD8^+ IEL activation by scRNA-seq and Nanostring digital transcript counting of FACS-sorted immune subsets and (3) inhibition of gliadin-induced epithelial apoptosis and proliferation. Gain-of-function recombinant IL-15 treatment (R&D #247-ILB) of CeD organoids enhances gliadin-induced (1) expansion of HLA-DQ2:gliadin tetramer^82-positive T cells by FACS, (2) activation of these tetramer(+) CD4^+ T cells or tetramer(−) CD8^+ IELs by scRNA-seq and FACS/Nanostring analysis of immune subsets and (3) induction of epithelial apoptosis and proliferation.

With “recombinant IL-15: recombinant IL-15 (R&D #247-ILB)” the “effect on gliadin-induced tetramer-positive T cell expansion, T cell activation, epithelial apoptosis and proliferation” value was “enhances”.
